Source: the supplement of paper PMC10307832

Columns and labels:
Assay in all cases: relative viability (nuclei count vs DMSO), 5 days (fraction); higher = more cells survive
Sulindac + Phenformin = compound: CC1=C(CC(=O)O)c2cc(F)ccc2/C1=C\c1ccc([S+](C)[O-])cc1 [Sulindac] + N=C(N)NC(=N)NCCc1ccccc1 [Phenformin] (partner 250 µM)
Outline: (§1)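 A single step with final 0.05% Triton X-100, 1% formaldehyde and 1 ug/ml Hoechst fixed the cells and stained nuclei 5 days after treatment. Lung cancer cell lines in 1536-well plates had been treated by pin tool the day after seeding with one drug alone or a fixed anchor-drug dose plus five library-drug doses (not always all listed) in √10 steps, and nuclei were counted on 4× images. Relative viability is the ratio of nuclei in treated wells to nuclei in vehicle wells, taken as the median of duplicate plates.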

Sulindac + Vorinostat = compound: CC1=C(CC(=O)O)c2cc(F)ccc2/C1=C\c1ccc([S+](C)[O-])cc1 [Sulindac] + O=C(CCCCCCC(=O)Nc1ccccc1)NO [Vorinostat] (partner 1 µM)
Outline: as §1

[1] = compound: CN[C@@H]1C[C@H]2O[C@@](C)([C@@H]1OC)n1c3ccccc3c3c4c(c5c6ccccc6n2c5c31)C(=O)NC4 [Staurosporine] + CC(C)C[C@H](NC(=O)[C@H](Cc1ccccc1)NC(=O)c1cnccn1)B(O)O [Bortezomib] (partner 0.002 µM)
Outline: as §1

[2] = compound: CN[C@@H]1C[C@H]2O[C@@](C)([C@@H]1OC)n1c3ccccc3c3c4c(c5c6ccccc6n2c5c31)C(=O)NC4 [Staurosporine] + N=C(N)NC(=N)NCCc1ccccc1 [Phenformin] (partner 250 µM)
Outline: as §1

## UMC-11
Sulindac + Phenformin; first compound 0.08 µM
  relative viability: 0.359
Sulindac + Phenformin; first compound 0.253 µM
  relative viability: 0.352
Sulindac + Phenformin; first compound 0.8 µM
  relative viability: 0.284
Sulindac + Phenformin; first compound 2.53 µM
  relative viability: 0.323
Sulindac + Phenformin; first compound 8 µM
  relative viability: 0.396
Sulindac + Vorinostat; first compound 0.08 µM
  relative viability: 0.342
Sulindac + Vorinostat; first compound 0.253 µM
  relative viability: 0.411
Sulindac + Vorinostat; first compound 0.8 µM
  relative viability: 0.374
Sulindac + Vorinostat; first compound 2.53 µM
  relative viability: 0.338
Sulindac + Vorinostat; first compound 8 µM
  relative viability: 0.386
[1]; first compound 0.005 µM
  relative viability: 0.664
[1]; first compound 0.01581 µM
  relative viability: 0.131
[1]; first compound 0.05 µM
  relative viability: 0.454
[1]; first compound 0.1581 µM
  relative viability: 0.0878
[1]; first compound 0.5 µM
  relative viability: 0.0678
[2]; first compound 0.005 µM
  relative viability: 0.305
[2]; first compound 0.01581 µM
  relative viability: 0.168
[2]; first compound 0.05 µM
  relative viability: 0.135
[2]; first compound 0.1581 µM
  relative viability: 0.0915
[2]; first compound 0.5 µM
  relative viability: 0.13
